# Key:
# Assay type in all cases: cell-based
# [1] = test system: A2780 cells; assay: Boyden chamber chemotaxis of A2780 cells; settings: 10 ng/ml VEGF in NIH3T3-conditioned media, overnight
# Experimental: A2780 (FIG. 10a) and SKOV3 (FIG. 10b) cells were incubated with the indicated concentrations of Å6 peptide for 30 min at 37° C. Aliquots representing 6,000 cells were placed on quadruplicate, CnI-coated filters (8 μm pores) in Boyden chambers and the cells allowed to migrate overnight in response to 10 ng/ml VEGF in NIH3T3-conditioned media containing the indicated concentrations of Å6. Upon completion of migration, the apical surfaces of the membranes were wiped clean and the migrating cells on the basal surface were stained with Geimsa stain and the cells present in representative fields of the membranes counted. Data represent the averages+/−standard deviations obtained from the replicate filters. […] This provides further confirmation that CD44 is the target for the Å6 peptide.
# [2] = molecular target: T1, CD44 (Homo sapiens, UniProt P16070); assay: Dimerization of CD44 in SKOV3 cells, anti-CD44 B-F24 immunoblot; settings: SKOV3 cultured 20 hr with 1 or 10 μM Å6, non-reducing
# T1 construct: endogenous in cells; host or cells: SKOV3 cells
# T1 sequence (P16070 21-742): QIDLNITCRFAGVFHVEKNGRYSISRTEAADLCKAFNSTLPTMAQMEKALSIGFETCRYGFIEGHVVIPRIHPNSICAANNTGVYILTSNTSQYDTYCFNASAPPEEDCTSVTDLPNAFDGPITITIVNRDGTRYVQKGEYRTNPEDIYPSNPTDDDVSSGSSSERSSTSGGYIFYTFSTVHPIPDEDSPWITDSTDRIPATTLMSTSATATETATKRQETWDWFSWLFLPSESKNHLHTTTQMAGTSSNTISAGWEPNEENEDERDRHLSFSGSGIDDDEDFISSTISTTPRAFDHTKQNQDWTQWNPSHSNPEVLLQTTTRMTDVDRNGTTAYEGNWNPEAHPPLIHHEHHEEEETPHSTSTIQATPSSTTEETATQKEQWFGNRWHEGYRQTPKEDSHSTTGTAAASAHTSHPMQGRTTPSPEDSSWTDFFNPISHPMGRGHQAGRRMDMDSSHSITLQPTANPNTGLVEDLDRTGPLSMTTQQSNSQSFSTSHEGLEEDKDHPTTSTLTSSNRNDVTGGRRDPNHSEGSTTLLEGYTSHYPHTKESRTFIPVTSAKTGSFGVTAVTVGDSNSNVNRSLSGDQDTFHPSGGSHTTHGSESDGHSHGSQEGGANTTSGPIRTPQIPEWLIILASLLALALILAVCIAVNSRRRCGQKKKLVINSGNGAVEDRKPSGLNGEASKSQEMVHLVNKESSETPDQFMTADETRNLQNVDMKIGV
# Experimental: In FIG. 13 SKOV3 cells were cultured for 20 hr with no additions, 1 or 10 μM Å6 or 100 ng/ml PMA. Triton X-100 lysates were generated and further solubilized in SDS-PAGE sample buffer under non-reducing conditions. Aliquots representing 7.5 μg of cellular protein were subjected to SDS-PAGE followed by immunoblot analysis with the anti-CD44 murine monoclonal B-F24. The presence of stained higher molecular weight bands can be indicative of CD44 dimers and/or oligomers.
# [3] = molecular target: T1, CD44; assay: IM7 binding to SKOV3 cells, FACs analysis; settings: IM7 1 μg/ml, 4° C.
# Experimental: In FIGS. 14a and 14b SKOV3 cells were incubated with the indicated concentrations of Å6 for 30 min at 4° C. IM7 (1 μg/ml) was then added and allowed to bind for 30 min at 4° C., after which the cells were washed and incubated with FITC-donkey anti-rat IgG for 30 min at 4° C. The cells were washed once and then subjected to FACs analysis.
# [4] = test system: FAK; assay: FAK phosphorylation in SKOV3 cells, immunoblot and densitometry
# Experimental: Cells were detached from their culture vessels by brief trypsinization, suspended in complete media and centrifuged at 250×g for 10 min at room temperature. The cell pellets were suspended in Dulbeco's phosphate buffered saline (DPBS) and re-centrifuged for a total of three washes. The cells were then re-suspended at 3.33E5/ml in 24 ml of either RPMI containing 0.5% BSA (Sigma Chem. Co. #A0336) (RPMI/BSA) or the conditioned media of growing NIH3T3 fibroblasts (10% FBS in DMEM) supplemented with 10 ng/ml vascular endothelial growth factor (VEGF) (CMN). The cells were then treated with or without 100 ug/ml soluble hyaluronic acid (HA; human umbilical, Calbiochem #385902) for 30 min at 37° C. under 5% CO2. Aliquots representing 2E6 cells were then plated into 10 cm culture dishes and A6 added to yield final concentrations of 0, 10, 100 and 1000 nM. The cells were cultured overnight (18 hr) at 37° C. under 5% CO2.
# After 18 hr of treatment, the media were aspirated from the 10 cm dishes and saved. The plates were washed 3 times with 4 ml of ice-cold DPBS which were pooled with the reserved non-adherent cells. The non-adherent cells were centrifuged at 250×g for 10 min at 4° C., washed twice with cold DPBS, drained and lysed in 50 ul of cold RIPA buffer (ThermoScientific #89901) containing cocktails of broad spectrum phosphatase inhibitors (Calbiochem #524625; used at 2× final concentration) and protease inhibitors (Sigma #P8340) (RIPA/inh.). The 10 cm dishes were drained of remaining wash and the adherent cells lysed by scraping in 200 μL of cold RIPA/inh. For each test condition, the lysates of the non-adherent and adherent populations were combined, vortexed and then centrifuged at 14,000 rpm at 4° C. for 20 min. Aliquots of the cleared lysates were frozen at −80° C. immediately. A small aliquot was reserved for total protein analysis using a BCA Protein Assay Kit (Calbiochem #71285-3).
# Samples representing 20 μg of total protein of each lysate were solubilized in the presence of 50 mM Tris pH 6.8, 10% glycerol, 2% SDS and 100 mM DTT for 5 min at 95° C. and then loaded onto 10-20% acrylamide gels (BioRad #345-0044, Tris-HCl, 1 mm, 26 well, 15 μL/well). Electrophoresis was performed using Laemli electrophoresis buffer (0.1% SDS, 25 mM Tris, 192 mM glycine) at 200 V, constant voltage, for one hour. Upon completion of electrophoresis, the proteins were transferred to Immun-Blot PVDF membranes (BioRad #162-0238) in ice-cold 20% methanol in 25 mM Tris, 192 mM glycine for 2 hr at 0.5 Amps, constant current/blotting apparatus. […]
# The integrated densities (id) of the bands of interest were measured using Image J software (NIH). […]
substance,measurement,setting,value
acetyl-Lys-Pro-Ser-Ser-Pro-Pro-Glu-Glu-NH2 (Ac-KPSSPPEE-NH2) [Å6],migration of A2780,[1],essentially unaffected
same,CD44 higher molecular weight bands (dimers and/or oligomers),[2],higher molecular weight bands are formed
same,IM7 antibody binding to SKOV3 cells,[3],increase in antibody binding with increasing concentration
same,FAK phosphorylation,[4]; CM/V media,enhanced
same,FAK phosphorylation in the presence of HA,[4]; RPMI/BSA,restored
same,pFAK/FAK ratios,"[4]; SKOV3, all conditions, Y397, Y576/577, Y925",enhanced pFAK/FAK ratios in a dose-dependent manner
